Numbered stars: 1 amine (or outer) side, 2 acyl side, 3 side chain; on linkers, the order of the positions; unused ones are H or OH. Bridge positions count the residues as written; N and C are the ends. Square brackets hold non-standard residues; d marks the D form. Peptide text beside a SMILES is read from it. I, II: the chains in the order shown. * marks the point of attachment. ξ: configuration not given here. Hexanoyl(6-succinimido-3yl) = O=C1CC([*:1])C(=O)N1CCCCCC(=O)[*:2]; EuK = O=C(O)CC[C@H](NC(=O)N[C@@H](CCCCN*)C(=O)O)C(=O)O; Dolaproine = CO[C@@H]([C@@H]1CCCN1)[C@@H](C)C(=O)O; Dil = CC[C@H](C)[C@H](NC)[C@@H](CC(=O)O)OC; PABC = O=C(OCc1ccc(N[*:1])cc1)[*:2]; X1 = C[C@@H](N*)[C@@H](O)c1ccccc1; X2 = O=C(Cc1ccc(CN[*:1])cc1)[*:2]; PEG4 = NCCOCCOCCOCCOCCC(=O)O; NMeV = CN[C@H](C(=O)O)C(C)C; ξCit = NC(=O)NCCCC(N)C(=O)O; CO = O=C([*:1])[*:2]; ξV = CC(C)C(N)C(=O)O; Ahx = NCCCCCC(=O)O
Tests used:
[1] = tested on: SK-BR-3 (human breast cancer cells); assay: Inhibition of cell line proliferation, CCK8; type: cell-based; conditions: for IC50 (MMAE)/IC50 (conjugate): SK-BR-3; for IC50: SK-BR-3, 68-72 hours, CCK8
Description: (§1) Experimental operations: LNCaP, SK-BR-3, NCI-H226, CFPAC-1 and PANC-1 cells were prepared in advance and counted; with a culture medium (IMDM+10% FBS+1× L-Glutamine+1×P/S), the cells LNCaP, SK-BR-3 and CFPAC-1 were diluted to 4×10^4 cells/ml, NCI-H226 was diluted to 2.0×10^4 cells/ml and PANC-1 was diluted to 3.0×10^4 cells/ml; the diluted cell solution was plated in 96-well plates at 100 μl/well; and negative control and blank control wells were set on each plate. After adherent cell culture overnight, the diluted samples to be tested were added at 50 μl/well. The plates were placed in an incubator at 37° C., 5% CO2 and cultured for 68-72 hours. To each well, 15 μl (10% of the liquid volume in a well) of a color developing solution from CCK8 was added; and the plates were incubated at 37° C. for 45-70 minutes and each plate was read at 450 nm on a microplate reader. The data was edited using SoftMax Pro and a 4-P fitting curve was plotted.
(§2) Experimental Operations: LNCaP, SK-BR-3, MDA-MB-468 and CFPAC-1 cells were prepared in advance and counted; with a culture medium (IMDM+10% FBS+1× L-Glutamine+1×P/S), the cells LNCaP, SK-BR-3, MDA-MB-468 and CFPAC-1 were diluted to 4×10^4 cells/ml; the diluted cell solution was plated in 96-well plates at 100 µl/well; and negative control and blank control wells were set on each plate. After adherent cell culture overnight, the diluted samples to be tested were added at 50 μl/well. The plates were placed in an incubator at 37° C., 5% CO2 and cultured for 68-72 hours. To each well, 15 μl (10% of the liquid volume in a well) of a color developing solution from CCK8 was added; and the plates were incubated at 37° C. for 45-70 minutes and each plate was read at 450 nm on a microplate reader. The data was edited using SoftMax Pro and a 4-P fitting curve was plotted.

[2] = tested on: HPAF-II (human pancreatic cancer cells); assay: Tumor growth inhibition in subcutaneous xenograft model (CDX); type: in vivo, BALB/c-nude mice
Description: (§3) Main CDX models: HPAF-II (human pancreatic cancer cells), NCI-H226 (human lung cancer cells) and SCLC-21H (small cell lung cancer cells)
(§4) The cells or tumor tissue mass were prepared and subcutaneously inoculated into the anterior right flank of BALB/c-nude mice. When the tumor volume expanded to 80-160 mm^3, a randomized grouping was performed, and a model control group and administration groups were set. The mice were administrated from the first day of grouping, wherein the administration dose was adjusted according to the latest weight measurement. The mice were administrated via tail vein injection at an administration volume of 10 μl/g. After grouping and administration, the effects of tumor growth and treatment on normal behaviors of animals, specifically including the activity of experimental animals, food intake and drinking status, weight gain or loss status, and other abnormal conditions in eyes, hair, etc., were monitored. After grouping and administration, the weight of mice was measured twice a week to calculate the rate of weight change; at the same time, the long diameter and short diameter of the tumor were measured with a vernier caliper, and the tumor volume, relative tumor proliferation rate, tumor volume inhibition rate and other indicators were calculated. The formula of tumor volume is TV=0.5 a×b^2, wherein a is […] the long diameter of a tumor and b is the short diameter of a tumor.

[3] = tested on: NCI-H226 (human lung cancer cells); assay: Inhibition of cell line proliferation, CCK8; type: cell-based
Description: as §1
Experimental operations: NCI-H226, CFPAC-1 and MDA-MB-468 cells were prepared in advance and counted; MDA-MB-468 and CFPAC-1 cells were plated at a density of 2×10^4 cells/ml (100 μl/well) and NCI-H226 cells were plated at a density of 1×10^4 cells/ml (100 μl/well) in 96-well plates; and negative control and blank control wells were set on each plate. After adherent cell culture overnight, the diluted samples to be tested were added at 50 μl/well. The plates were placed in an incubator at 37° C., 5% CO2 and cultured for 68-72 hours. To each well, 15 μl (10% of the liquid volume in a well) of a color developing solution from CCK8 was added; and the plates were incubated at 37° C. for 45-70 minutes and each plate was read at 450 nm on a microplate reader. The data was edited using SoftMax Pro and a 4-P fitting curve was plotted.

[4] = tested on: LNCaP (human prostate cancer cells); assay: Inhibition of cell line proliferation, CCK8; type: cell-based; conditions: LNCaP; for IC50: 68-72 hours, CCK8
[5] = tested on: PANC-1 (human pancreatic cancer cells); assay: Inhibition of cell line proliferation, CCK8; type: cell-based
Description: Experimental operations: PANC-1 and CFPAC-1 cells were prepared in advance, counted, and plated in 96-well cell culture plates at a cell density of 4×10^4 cells/ml (100 μl/well); negative control and blank control wells were set on each plate. After adherent cell culture overnight, the diluted samples to be tested were added at 50 μl/well. The plates were placed in an incubator at 37° C., 5% CO2 and cultured for 68-72 hours. To each well, 15 μl (10% of the liquid volume in a well) of a color developing solution from CCK8 was added; and the plates were incubated at 37° C. for 45-70 minutes and each plate was read at 450 nm on a microplate reader. The data was edited using SoftMax Pro and a 4-P fitting curve was plotted.
as §1
as §2, with “Operations: LNCaP, MDA-MB-468, CFPAC-1 and PANC-1” for “Operations: LNCaP, SK-BR-3, MDA-MB-468 and CFPAC-1”, “CFPAC-1 and PANC-1 cells were” for “MDA-MB-468 and CFPAC-1 cells were”, “cells LNCaP, MDA-MB-468 and” for “cells LNCaP, SK-BR-3, MDA-MB-468 and”, “to 4×10^4 cells/ml, and PANC-1 was diluted to 3.0×10^4 cells/ml; the” for “to 4×10^4 cells/ml; the”, “at 100 μl/well; and negative” for “at 100 µl/well; and negative”

[6] = tested on: CFPAC-1 (human pancreatic cancer cells); assay: Inhibition of cell line proliferation, CCK8; type: cell-based; conditions: for IC50 (MMAE)/IC50 (conjugate): CFPAC-1; for IC50: CFPAC-1, 68-72 hours, CCK8
[7] = tested on: SCLC-21H (small cell lung cancer cells); assay: Tumor growth inhibition in subcutaneous xenograft model (CDX); type: in vivo, BALB/c-nude mice; conditions: SCLC-21H CDX
Description: as §3, §4

[8] = tested on: NCI-H226 (human lung cancer cells); assay: as above; type: in vivo, BALB/c-nude mice
Description: as §3, §4

[9] = tested on: MDA-MB-468 (human breast cancer cells); assay: Inhibition of cell line proliferation, CCK8; type: cell-based

## CC[C@H](C)[C@@H]([C@@H](CC(=O)N1CCC[C@H]1[C@H](OC)[C@@H](C)C(=O)N[C@H](C)[C@@H](O)c1ccccc1)OC)N(C)C(=O)[C@@H](NC(=O)[C@H](C(C)C)N(C)C(=O)OCc1ccc(NC(=O)C(CCCNC(N)=O)NC(=O)[C@@H](NC(=O)CCCCCN2C(=O)CC(SC[C@@H](NC(=O)CCCCCNC(=O)[C@H](CCCCN)NC(=O)[C@H](CC(=O)O)NC(=O)[C@H](CC(=O)O)NC(=O)Cc3ccc(CNC(=O)NCCCC[C@H](NC(=O)N[C@@H](CCC(=O)O)C(=O)O)C(=O)O)cc3)C(=O)NCCOCCOCCOCCOCCC(=O)N[C@@H](CCCCN)C(=O)N[C@@H](CCC(=O)O)C(=O)N[C@@H](Cc3ccccc3)C(=O)N[C@@H](CC(C)C)C(=O)N[C@@H](Cc3cnc[nH]3)C(=O)N3CCC[C@H]3C(=O)N[C@@H](CO)C(=O)N[C@@H](CCCCN)C(=O)NC(C(=O)N[C@@H](CC(=O)O)C(=O)N[C@@H](CC(C)C)C(=O)N3CCC[C@H]3C(=O)N[C@@H](CCCNC(=N)N)C(=O)O)C(C)C)C2=O)C(C)C)cc1)C(C)C (stereo partly drawn) [CB-1020] (I: {EuK-CO}-[X2]DDK[Ahx][dC][PEG4]KEFLHPSK[ξV]DLPR-OH / II: V[ξCit][PABC][NMeV]V[Dil][Dolaproine]-X1; linker I:6-II:N via Hexanoyl(6-succinimido-3yl))
[1]
  IC50 (MMAE)/IC50 (conjugate): 0.0070
  IC50: 287 nM
[2]
  anti-tumor growth effect (in words): obvious anti-tumor growth effect
[3]; NCI-H226
  IC50 (MMAE)/IC50 (conjugate): 0.00384
[3]; NCI-H226, 68-72 hours, CCK8
  IC50: 1570 nM
[4]
  IC50 ratio (MMAE/conjugate): 0.0179
  IC50: 168 nM
[5]; PANC-1
  IC50 (MMAE)/IC50 (conjugate): 0.0044
[5]; PANC-1, 68-72 hours, CCK8
  IC50: 458 nM
[6]
  IC50 (MMAE)/IC50 (conjugate): 0.005
  IC50: 3000 nM

## CC[C@H](C)[C@@H]([C@@H](CC(=O)N1CCC[C@H]1[C@H](OC)[C@@H](C)C(=O)N[C@H](C)[C@@H](O)c1ccccc1)OC)N(C)C(=O)[C@@H](NC(=O)[C@H](C(C)C)N(C)C(=O)OCc1ccc(NC(=O)C(CCCNC(N)=O)NC(=O)[C@@H](NC(=O)CCCCCN2C(=O)CC(SC[C@@H](NC(=O)CCCCCNC(=O)[C@H](CCCCN)NC(=O)[C@H](CC(=O)O)NC(=O)[C@H](CC(=O)O)NC(=O)Cc3ccc(CNC(=O)NCCCC[C@H](NC(=O)N[C@@H](CCC(=O)O)C(=O)O)C(=O)O)cc3)C(=O)NCCOCCOCCOCCOCCC(=O)NCCCCC(N[C@@H](Cc3ccc(O)cc3)C(=O)N[C@@H](CO)C(=O)N[C@@H](Cc3c[nH]c4ccccc34)C(=O)N[C@@H](Cc3cnc[nH]3)C(=O)[C@H]3CCC(=O)N3)C(=O)N[C@@H](CC(C)C)C(=O)N[C@@H](CCCNC(=N)N)C(=O)N3CCC[C@H]3C(=O)CN)C2=O)C(C)C)cc1)C(C)C (stereo partly drawn) [CB-1320]
[1]
  IC50 (MMAE)/IC50 (conjugate): 0.016
  IC50: 93 nM
[7]
  anti-tumor growth effect (in words): obvious anti-tumor growth effect
[8]
  anti-tumor growth effect (in words): obvious anti-tumor growth effect
[4]
  IC50 ratio (MMAE/conjugate): 0.043
  IC50: 60 nM
[6]
  IC50 (MMAE)/IC50 (conjugate): 0.014
  IC50: 1090 nM
[9]; MDA-MB-468
  IC50 (MMAE)/IC50 (conjugate): 0.011
[9]; MDA-MB-468, 68-72 hours, CCK8
  IC50: 212 nM

From patent publication US20220175761A1, “BI-LIGAND DRUG CONJUGATE AND USE THEREOF” (COHERENT BIOPHARMA (SUZHOU), LIMITED, priority 2019, published 2022)
